Data taken from PubChem BioAssay (NCI).
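96-well plates; 48 h exposure; 5 concentrations. Endpoints by linear interpolation between flanking doses. Not reached: highest tested concentration assigned. TGI: concentration producing complete growth inhibition.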

Assays:
Assay in all cases: growth of human tumour cells (NCI), 48 h
SR leukemia = system: SR leukemia
DU-145 prostate = system: DU-145 prostate
OVCAR-4 ovarian = system: OVCAR-4 ovarian
UO-31 renal = system: UO-31 renal
M14 melanoma = system: M14 melanoma
MCF7 breast = system: MCF7 breast
CAKI-1 renal = system: CAKI-1 renal
OVCAR-5 ovarian = system: OVCAR-5 ovarian
TK-10 renal = system: TK-10 renal
KM12 colon = system: KM12 colon
HOP-92 NSCLC = system: HOP-92 NSCLC
SW-620 colon = system: SW-620 colon
SK-MEL-28 melanoma = system: SK-MEL-28 melanoma
SNB-19 CNS = system: SNB-19 CNS
MALME-3M melanoma = system: MALME-3M melanoma
MDA-N = system: MDA-N
UACC-62 melanoma = system: UACC-62 melanoma
HCC-2998 colon = system: HCC-2998 colon
T-47D breast = system: T-47D breast
SF-268 CNS = system: SF-268 CNS
HS 578T breast = system: HS 578T breast
COLO 205 colon = system: COLO 205 colon
NCI-H226 lung = system: NCI-H226 lung
EKVX NSCLC = system: EKVX NSCLC
MOLT-4 leukemia = system: MOLT-4 leukemia
HT29 colon = system: HT29 colon
A549 NSCLC = system: A549 NSCLC
MDA-MB-435 = system: MDA-MB-435
MDA-MB-231 breast = system: MDA-MB-231 breast
SNB-75 CNS = system: SNB-75 CNS
BT-549 breast = system: BT-549 breast
OVCAR-8 ovarian = system: OVCAR-8 ovarian
NCI/ADR-RES ovarian = system: NCI/ADR-RES ovarian
NCI-H23 lung = system: NCI-H23 lung
OVCAR-3 ovarian = system: OVCAR-3 ovarian
NCI-H522 lung = system: NCI-H522 lung
NCI-H460 lung = system: NCI-H460 lung
HL-60(TB) leukemia = system: HL-60(TB) leukemia
PC-3 prostate = system: PC-3 prostate
LOX IMVI melanoma = system: LOX IMVI melanoma
K-562 leukemia = system: K-562 leukemia
ACHN renal = system: ACHN renal
786-0 renal = system: 786-0 renal
SK-OV-3 ovarian = system: SK-OV-3 ovarian
HCT-116 colon = system: HCT-116 colon
SK-MEL-5 melanoma = system: SK-MEL-5 melanoma
RPMI-8226 leukemia = system: RPMI-8226 leukemia
HOP-62 NSCLC = system: HOP-62 NSCLC
IGROV1 ovarian = system: IGROV1 ovarian
SF-295 CNS = system: SF-295 CNS
RXF 393 renal = system: RXF 393 renal
SF-539 CNS = system: SF-539 CNS
HCT-15 colon = system: HCT-15 colon
U251 CNS = system: U251 CNS
A498 renal = system: A498 renal
SK-MEL-2 melanoma = system: SK-MEL-2 melanoma
CCRF-CEM leukemia = system: CCRF-CEM leukemia
UACC-257 melanoma = system: UACC-257 melanoma
SN12C renal = system: SN12C renal

COc1ccc(-c2cc(-c3ccccc3)n(C3OC(COC(C)=O)C(OC(C)=O)C(OC(C)=O)C3OC(C)=O)c(=S)c2C#N)cc1 (stereo unspecified)
TGI (SR leukemia): 37.5 µM
TGI (DU-145 prostate): 23.9 µM
TGI (OVCAR-4 ovarian): 8.06 µM
TGI (UO-31 renal): 21.3 µM
TGI (M14 melanoma): 20.5 µM
TGI (MCF7 breast): > 100 µM
TGI (CAKI-1 renal): 19 µM
TGI (OVCAR-5 ovarian): 29.2 µM
TGI (TK-10 renal): 40.7 µM
TGI (KM12 colon): 44.7 µM
TGI (HOP-92 NSCLC): 15.5 µM
TGI (SW-620 colon): > 100 µM
TGI (SK-MEL-28 melanoma): 25.1 µM
TGI (SNB-19 CNS): 23.1 µM
TGI (MALME-3M melanoma): 23.2 µM
TGI (MDA-N): 25.5 µM
TGI (UACC-62 melanoma): 16.4 µM
TGI (HCC-2998 colon): > 100 µM
TGI (T-47D breast): 25.7 µM
TGI (SF-268 CNS): 58.2 µM
TGI (HS 578T breast): 23.5 µM
TGI (COLO 205 colon): 23.4 µM
TGI (NCI-H226 lung): 23.1 µM
TGI (EKVX NSCLC): 31.9 µM
TGI (MOLT-4 leukemia): > 100 µM
TGI (HT29 colon): 18.7 µM
TGI (A549 NSCLC): 39.3 µM
TGI (MDA-MB-435): 19.4 µM
TGI (MDA-MB-231 breast): 16.4 µM
TGI (SNB-75 CNS): 19.2 µM
TGI (BT-549 breast): 34.9 µM
TGI (OVCAR-8 ovarian): 19.7 µM
TGI (NCI/ADR-RES ovarian): 50.5 µM
TGI (NCI-H23 lung): 47.7 µM
TGI (OVCAR-3 ovarian): 23.5 µM
TGI (NCI-H522 lung): 18.5 µM
TGI (NCI-H460 lung): 22.2 µM
TGI (HL-60(TB) leukemia): 13.4 µM
TGI (PC-3 prostate): 32.3 µM
TGI (LOX IMVI melanoma): > 100 µM
TGI (K-562 leukemia): > 100 µM
TGI (ACHN renal): 29.7 µM
TGI (786-0 renal): 12.4 µM
TGI (SK-OV-3 ovarian): 32.9 µM
TGI (HCT-116 colon): 19.2 µM
TGI (SK-MEL-5 melanoma): 19.4 µM
TGI (RPMI-8226 leukemia): 16.7 µM
TGI (HOP-62 NSCLC): 14.4 µM
TGI (IGROV1 ovarian): 32 µM
TGI (SF-295 CNS): 17.9 µM
TGI (RXF 393 renal): 23.2 µM
TGI (SF-539 CNS): 14.4 µM
TGI (HCT-15 colon): > 100 µM
TGI (U251 CNS): 18.7 µM

CC1=C(C)C(=O)OC(C(C)(O)C2(O)CCC3(O)C4CC(Cl)C5(O)C(O)C=CC(=O)C5(C)C4CCC32C)C1 (stereo unspecified)
TGI (SR leukemia): 37.1 µM
TGI (A498 renal): > 100 µM
TGI (DU-145 prostate): > 100 µM
TGI (OVCAR-4 ovarian): > 100 µM
TGI (UO-31 renal): > 100 µM
TGI (M14 melanoma): > 100 µM
TGI (MCF7 breast): > 100 µM
TGI (CAKI-1 renal): > 100 µM
TGI (OVCAR-5 ovarian): > 100 µM
TGI (TK-10 renal): > 100 µM
TGI (KM12 colon): > 100 µM
TGI (HOP-92 NSCLC): > 100 µM
TGI (SW-620 colon): 59.1 µM
TGI (SK-MEL-28 melanoma): > 100 µM
TGI (SNB-19 CNS): > 100 µM
TGI (MALME-3M melanoma): > 100 µM
TGI (MDA-N): > 100 µM
TGI (UACC-62 melanoma): > 100 µM
TGI (SK-MEL-2 melanoma): > 100 µM
TGI (HCC-2998 colon): > 100 µM
TGI (T-47D breast): > 100 µM
TGI (SF-268 CNS): > 100 µM
TGI (HS 578T breast): > 100 µM
TGI (COLO 205 colon): 42.8 µM
TGI (NCI-H226 lung): > 100 µM
TGI (EKVX NSCLC): > 100 µM
TGI (MOLT-4 leukemia): 32.8 µM
TGI (HT29 colon): > 100 µM
TGI (CCRF-CEM leukemia): 53.4 µM
TGI (A549 NSCLC): > 100 µM
TGI (MDA-MB-435): > 100 µM
TGI (MDA-MB-231 breast): > 100 µM
TGI (SNB-75 CNS): > 100 µM
TGI (BT-549 breast): > 100 µM
TGI (OVCAR-8 ovarian): > 100 µM
TGI (NCI-H23 lung): > 100 µM
TGI (OVCAR-3 ovarian): > 100 µM
TGI (NCI-H522 lung): > 100 µM
TGI (NCI-H460 lung): > 100 µM
TGI (HL-60(TB) leukemia): 9.04 µM
TGI (UACC-257 melanoma): > 100 µM
TGI (PC-3 prostate): > 100 µM
TGI (LOX IMVI melanoma): 46.4 µM
TGI (K-562 leukemia): > 100 µM
TGI (ACHN renal): > 100 µM
TGI (786-0 renal): > 100 µM
TGI (SK-OV-3 ovarian): > 100 µM
TGI (HCT-116 colon): > 100 µM
TGI (RPMI-8226 leukemia): 47.3 µM
TGI (HOP-62 NSCLC): > 100 µM
TGI (IGROV1 ovarian): > 100 µM
TGI (SF-295 CNS): > 100 µM
TGI (SN12C renal): > 100 µM
TGI (RXF 393 renal): 56.1 µM
TGI (SF-539 CNS): > 100 µM
TGI (HCT-15 colon): > 100 µM
TGI (U251 CNS): > 100 µM
